Some test systems named below: MOLT-4; RXF 393; CCRF-CEM; HOP-62; MCF7; SK-MEL-2; CAKI-1; IGROV-1; PC-3; HCT-116; OVCAR-3; UACC-62; NCI-H226; K562; SNB-75; OVCAR-8; LOX IMVI; SN12C; SF-268; BT-549.
What all share (assay): NCI-60 cell line screen, 48 h

Where “and” joins values, the source holds several entries; their conditions need not be identical. Equal entries are not always repeated.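 Exposure lasted 48 hours, with cells grown in 96-well plates and compounds tested at five concentrations. GI50: concentration for 50% inhibition of growth.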 Calls of active or inactive are those of the source. Cut-off read from the data, not from the text of the source: active = GI50 up to about 1.1 µM and inactive = higher.

As for `COc1ccc(Nc2c[nH]c(=O)[nH]c2=O)cc1`, the GI50 in the assay on MOLT-4, in the assay on RXF 393, with CCRF-CEM, in the assay on HOP-62, with MCF7 and in the assay on SK-MEL-2 was > 100 µM (inactive) in each case. The GI50 with CAKI-1, in the assay on IGROV-1, in the assay with PC-3, in the assay with HCT-116, in the assay with OVCAR-3 and in the assay with UACC-62 was > 100 µM (inactive) in each case. The GI50 with NCI-H226, in the assay with K562, in the assay on SNB-75, in the assay on OVCAR-8, in the assay on LOX IMVI and in the assay with SN12C was > 100 µM (inactive) throughout.

`Cc1nc2c3c(ncn2n1)Oc1c(c(-c2ccccc2)nn1-c1ccccc1)C3c1ccc(Cl)cc1` (stereo not drawn): the GI50 is 47.2 µM (inactive) in the assay with SF-268; > 100 µM (inactive) with MOLT-4; 72.3 µM (inactive) with RXF 393; > 10 µM (inactive) in the assay with CCRF-CEM; 75.7 µM (inactive) in the assay with HOP-62; > 100 µM (inactive) in the assay with MCF7. Further, the GI50 with SK-MEL-2, in the assay with CAKI-1, in the assay with IGROV-1, with PC-3, in the assay with HCT-116 and in the assay with OVCAR-3 was > 100 µM (inactive) in each case. Further, the GI50 was 53.6 µM (inactive) in the assay on UACC-62; > 100 µM (inactive) in the assay on NCI-H226; > 100 µM (inactive) with K562; 39.6 µM (inactive) in the assay with SNB-75; 56.9 µM (inactive) in the assay on OVCAR-8; > 100 µM (inactive) in the assay with LOX IMVI. For the same molecule, the GI50 with SN12C is > 100 µM (inactive).

In the case of `CN(CCCNC(=O)c1nn(-c2ccc(Cl)cc2Cl)c2c1ccc1ccccc12)CCCNC(=O)c1nn(-c2ccc(Cl)cc2Cl)c2c1ccc1ccccc12`, the GI50 in the assay with SF-268 was 1.61 µM (inactive); with MOLT-4 it was 1.61 µM (inactive); with RXF 393, 1.66 µM (inactive); in the assay with CCRF-CEM, 1.92 µM (inactive); in the assay with HOP-62, 1.77 µM (inactive); in the assay on MCF7 it was 1.56 µM (inactive). Besides, the GI50 in the assay on SK-MEL-2 was 1.65 µM (inactive); with CAKI-1, 1.58 µM (inactive); in the assay with IGROV-1 it was 1.74 µM (inactive); in the assay on PC-3, 1.68 µM (inactive); in the assay on HCT-116 it was 1.67 µM (inactive); with OVCAR-3, 1.72 µM (inactive). Besides, the GI50 with UACC-62 is 1.65 µM (inactive); with NCI-H226, 2.25 µM (inactive); with K562, 1.1 µM (active); in the assay on SNB-75, 1.75 µM (inactive); in the assay with OVCAR-8, 1.82 µM (inactive); with LOX IMVI, 1.69 µM (inactive). The GI50 in the assay with SN12C was 1.65 µM (inactive).

As for `O=C1/C(=C/c2ccccc2O)N=C(c2ccccc2)N1C1Nc2cc3c(cc2S1)NC(N1C(=O)/C(=C/c2ccccc2O)N=C1c1ccccc1)S3` (stereo not drawn), the GI50 in the assay with SF-268 is 16.6 µM (inactive); in the assay on MOLT-4, 35.5 µM (inactive); with RXF 393, 23.7 µM (inactive); in the assay on CCRF-CEM, 39.7 µM (inactive); in the assay on HOP-62, 31.2 µM (inactive); with MCF7, 2.13 µM (inactive). For the same molecule, the GI50 with SK-MEL-2 is 35.2 µM (inactive); with CAKI-1 it was 56.5 µM (inactive); with IGROV-1 it was 14.2 µM (inactive); with PC-3 it was 34.4 µM (inactive); in the assay on HCT-116 it was 27.3 µM (inactive); with OVCAR-3 it was 55.1 µM (inactive). Besides, the GI50 was > 100 µM (inactive) in the assay on NCI-H226, 29.9 µM (inactive) in the assay on K562, 30.7 µM (inactive) in the assay on OVCAR-8 and 42.2 µM (inactive) in the assay with LOX IMVI.

With `N#Cc1c(-c2ccccc2)c(C#N)c(=S)n(C2OC(CO)C(O)C(O)C2O)c1N` (stereo not drawn), the GI50 in the assay on SF-268 is > 100 µM (inactive); with RXF 393, > 100 µM (inactive); in the assay on CCRF-CEM it was > 100 µM (inactive) and 50.9 µM (inactive); in the assay on SK-MEL-2, > 100 µM (inactive); in the assay on CAKI-1, 92.7 µM (inactive); with PC-3, > 100 µM (inactive). Also, the GI50 in the assay with HCT-116 was > 100 µM (inactive); in the assay on OVCAR-3, > 100 µM (inactive); in the assay on UACC-62, > 100 µM (inactive); in the assay with NCI-H226, > 100 µM (inactive); in the assay on BT-549 it was 46.1 µM (inactive) and 80 µM (inactive); in the assay with K562, > 100 µM (inactive) and 59.4 µM (inactive). In addition, the GI50 with SNB-75 is 42.2 µM (inactive) and 64.9 µM (inactive); in the assay on OVCAR-8, > 100 µM (inactive); in the assay with LOX IMVI it was 86.9 µM (inactive); in the assay on SN12C, > 100 µM (inactive).

Regarding `C=CCCCN(C(=O)c1ccccc1)c1ccc(C(=O)OC)o1`, the GI50 was > 100 µM (inactive) in the assay with SF-268; 91.4 µM (inactive) with MOLT-4; > 100 µM (inactive) in the assay with RXF 393; > 100 µM (inactive) in the assay on HOP-62; > 100 µM (inactive) in the assay with MCF7; > 100 µM (inactive) in the assay on SK-MEL-2. The GI50 is > 100 µM (inactive) with CAKI-1; > 100 µM (inactive) in the assay with IGROV-1; 83.8 µM (inactive) in the assay on PC-3; 78 µM (inactive) in the assay on HCT-116; > 100 µM (inactive) in the assay with UACC-62; > 100 µM (inactive) in the assay on NCI-H226. Besides, the GI50 in the assay with SNB-75, in the assay with OVCAR-8, in the assay with LOX IMVI and in the assay with SN12C was > 100 µM (inactive) each time.

With `Cc1nc(N)sc1/N=N/c1cc(Cl)c([N+](=O)[O-])cc1Cl`, the GI50 in the assay with SF-268 is 29.9 µM (inactive); with MOLT-4, 8.24 µM (inactive); in the assay with RXF 393 it was 34.4 µM (inactive); with CCRF-CEM, 11.8 µM (inactive); with HOP-62, 33.7 µM (inactive); with MCF7, 26.9 µM (inactive). For the same molecule, the GI50 is 22.8 µM (inactive) with SK-MEL-2; 27.4 µM (inactive) in the assay with CAKI-1; 20.1 µM (inactive) in the assay on IGROV-1; 18.7 µM (inactive) with PC-3; 33.6 µM (inactive) in the assay with HCT-116; 15.6 µM (inactive) in the assay with OVCAR-3. The GI50 in the assay with UACC-62 is 16.4 µM (inactive); in the assay on NCI-H226 it was 14 µM (inactive); in the assay on K562 it was 13.1 µM (inactive); in the assay on SNB-75, < 0.01 µM (active); in the assay with OVCAR-8, 14.6 µM (inactive); with LOX IMVI, 16.9 µM (inactive). The GI50 in the assay on SN12C is 17.6 µM (inactive).

As for `COc1ccc2c(c1)CC1=C(O2)c2ccc(OC)cc2OC1`, the GI50 with SF-268 was 24.4 µM (inactive); in the assay with MOLT-4 it was 33.4 µM (inactive); in the assay on CCRF-CEM, 31 µM (inactive); with HOP-62, 41.9 µM (inactive); with SK-MEL-2, 31.3 µM (inactive); with CAKI-1, 18.7 µM (inactive). In addition, the GI50 in the assay on IGROV-1 was 28.5 µM (inactive); in the assay with PC-3, 23.2 µM (inactive); with HCT-116, 18.3 µM (inactive); with OVCAR-3, 19.9 µM (inactive); in the assay with UACC-62 it was 17.7 µM (inactive); in the assay on NCI-H226, 18.5 µM (inactive). The GI50 with BT-549 was 21.5 µM (inactive); with K562, 44.8 µM (inactive); in the assay on SNB-75 it was 25 µM (inactive); in the assay on OVCAR-8, 29.9 µM (inactive); in the assay on LOX IMVI, 13.6 µM (inactive); with SN12C, 20.5 µM (inactive).

As for `O=C(CCCN1CC=C(n2c(=O)[nH]c3ccccc32)CC1)c1cccs1`, the GI50 in the assay on SF-268 was > 100 µM (inactive); with MOLT-4 it was 45.6 µM (inactive); with RXF 393, > 100 µM (inactive); with CCRF-CEM it was > 100 µM (inactive); in the assay on HOP-62, > 100 µM (inactive); in the assay on MCF7, 11.8 µM (inactive). For the same molecule, the GI50 with SK-MEL-2 is > 100 µM (inactive); with CAKI-1 it was > 100 µM (inactive); in the assay on IGROV-1, > 100 µM (inactive); with PC-3 it was 93.3 µM (inactive); with HCT-116 it was > 100 µM (inactive); in the assay with OVCAR-3 it was > 100 µM (inactive). The GI50 in the assay on UACC-62 is > 100 µM (inactive); in the assay with NCI-H226, > 100 µM (inactive); in the assay on K562 it was 66.2 µM (inactive); in the assay with SNB-75 it was > 100 µM (inactive); with OVCAR-8, > 100 µM (inactive); with LOX IMVI, > 100 µM (inactive). The GI50 in the assay on SN12C was > 100 µM (inactive).

As to `Cc1ccccc1Nc1nc2ccccc2nc1NS(=O)(=O)c1ccccc1`, the GI50 in the assay on SF-268 was > 100 µM (inactive); in the assay on MOLT-4, > 100 µM (inactive); in the assay with RXF 393, > 100 µM (inactive); with CCRF-CEM, > 100 µM (inactive); in the assay with HOP-62, 68.1 µM (inactive); with MCF7 it was > 100 µM (inactive). Also, the GI50 with SK-MEL-2, with CAKI-1, with IGROV-1, in the assay on PC-3, with HCT-116 and in the assay on OVCAR-3 was > 100 µM (inactive) throughout. Also, the GI50 was 62.2 µM (inactive) in the assay with UACC-62; > 100 µM (inactive) with NCI-H226; > 100 µM (inactive) in the assay with K562; 56.2 µM (inactive) in the assay on SNB-75; > 100 µM (inactive) in the assay with OVCAR-8; > 100 µM (inactive) in the assay on LOX IMVI. Besides, in the assay on SN12C, the GI50 is > 100 µM (inactive).

For `O=[N+]([O-])c1ccc2[nH]c(=S)[nH]c(=S)c2c1`, the GI50 in the assay on SF-268, in the assay with MOLT-4, in the assay with RXF 393, in the assay with CCRF-CEM, in the assay on HOP-62 and in the assay with MCF7 was > 100 µM (inactive) throughout. In addition, the GI50 in the assay with SK-MEL-2, with CAKI-1, in the assay on IGROV-1, with PC-3, in the assay on HCT-116 and in the assay on OVCAR-3 was > 100 µM (inactive) each time. Moreover, the GI50 is > 100 µM (inactive) in the assay on UACC-62; > 100 µM (inactive) in the assay with NCI-H226; > 100 µM (inactive) in the assay on K562; 20.7 µM (inactive) with SNB-75; > 100 µM (inactive) in the assay on OVCAR-8; > 100 µM (inactive) in the assay with LOX IMVI. The GI50 in the assay on SN12C is > 100 µM (inactive).

The values are drawn from ChEMBL document CHEMBL1201862, “PubChem BioAssay data set” (2004).
